Assay results as given in ChEMBL document CHEMBL5291721, “A preclinical secondary pharmacology resource illuminates target-adverse drug reaction associations of marketed drugs” (Nat Commun, 2023).

How the values were obtained:
Bile salt export pump = Bile salt export pump (Homo sapiens, UniProt O95342); format: functional
[1] = target: Voltage-gated inwardly rectifying potassium channel KCNH2 (Homo sapiens, UniProt Q12809); format: functional
Acetylcholinesterase = Acetylcholinesterase (Homo sapiens, UniProt P22303); format: functional
Sequence of Acetylcholinesterase (P22303 whole entry): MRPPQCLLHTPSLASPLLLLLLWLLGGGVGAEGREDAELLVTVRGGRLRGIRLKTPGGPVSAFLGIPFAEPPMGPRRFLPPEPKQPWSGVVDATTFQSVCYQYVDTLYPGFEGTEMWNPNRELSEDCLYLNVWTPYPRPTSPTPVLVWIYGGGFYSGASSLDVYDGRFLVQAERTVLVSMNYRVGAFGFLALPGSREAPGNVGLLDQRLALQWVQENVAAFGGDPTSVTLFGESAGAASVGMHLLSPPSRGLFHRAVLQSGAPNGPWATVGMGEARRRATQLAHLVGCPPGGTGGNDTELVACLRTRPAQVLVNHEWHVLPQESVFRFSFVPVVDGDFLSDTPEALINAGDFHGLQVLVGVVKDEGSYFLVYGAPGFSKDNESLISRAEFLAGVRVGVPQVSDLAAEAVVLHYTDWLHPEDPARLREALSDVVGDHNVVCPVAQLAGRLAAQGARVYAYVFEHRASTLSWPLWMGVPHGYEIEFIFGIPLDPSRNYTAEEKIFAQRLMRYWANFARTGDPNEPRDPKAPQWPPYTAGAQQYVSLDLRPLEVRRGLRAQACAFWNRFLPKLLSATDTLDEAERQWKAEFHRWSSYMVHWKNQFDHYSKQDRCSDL

[2] = target: T1, Alpha-2A adrenergic receptor (Homo sapiens, UniProt P08913)
T1 sequence (P08913 whole entry): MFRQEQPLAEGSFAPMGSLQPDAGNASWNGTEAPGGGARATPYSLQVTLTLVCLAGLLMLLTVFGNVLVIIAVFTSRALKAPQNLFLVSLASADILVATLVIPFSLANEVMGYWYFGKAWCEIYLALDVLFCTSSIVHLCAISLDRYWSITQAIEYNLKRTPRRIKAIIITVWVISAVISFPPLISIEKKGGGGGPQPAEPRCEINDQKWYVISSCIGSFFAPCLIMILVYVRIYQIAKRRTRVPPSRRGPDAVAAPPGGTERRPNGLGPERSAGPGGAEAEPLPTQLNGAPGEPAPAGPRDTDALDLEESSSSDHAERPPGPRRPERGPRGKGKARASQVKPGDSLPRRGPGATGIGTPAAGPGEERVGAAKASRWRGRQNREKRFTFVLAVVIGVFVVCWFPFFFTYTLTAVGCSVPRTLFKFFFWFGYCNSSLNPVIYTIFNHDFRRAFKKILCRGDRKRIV

[3] = target: T2, Muscarinic acetylcholine receptor M2 (Homo sapiens, UniProt P08172)
T2 sequence (P08172 whole entry): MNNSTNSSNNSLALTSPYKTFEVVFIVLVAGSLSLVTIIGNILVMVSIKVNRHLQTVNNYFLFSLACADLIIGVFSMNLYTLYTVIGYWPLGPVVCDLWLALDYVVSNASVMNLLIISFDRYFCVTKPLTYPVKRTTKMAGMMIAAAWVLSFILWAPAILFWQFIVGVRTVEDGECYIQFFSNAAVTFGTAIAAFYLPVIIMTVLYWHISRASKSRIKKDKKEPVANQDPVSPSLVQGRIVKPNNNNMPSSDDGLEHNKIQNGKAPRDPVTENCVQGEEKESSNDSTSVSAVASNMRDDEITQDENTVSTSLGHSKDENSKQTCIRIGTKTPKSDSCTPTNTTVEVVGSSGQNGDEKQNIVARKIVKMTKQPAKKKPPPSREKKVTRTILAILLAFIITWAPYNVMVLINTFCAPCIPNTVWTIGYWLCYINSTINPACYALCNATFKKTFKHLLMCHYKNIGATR

D(3) dopamine receptor = D(3) dopamine receptor (Homo sapiens, UniProt P35462)
Sequence of D(3) dopamine receptor (P35462 whole entry): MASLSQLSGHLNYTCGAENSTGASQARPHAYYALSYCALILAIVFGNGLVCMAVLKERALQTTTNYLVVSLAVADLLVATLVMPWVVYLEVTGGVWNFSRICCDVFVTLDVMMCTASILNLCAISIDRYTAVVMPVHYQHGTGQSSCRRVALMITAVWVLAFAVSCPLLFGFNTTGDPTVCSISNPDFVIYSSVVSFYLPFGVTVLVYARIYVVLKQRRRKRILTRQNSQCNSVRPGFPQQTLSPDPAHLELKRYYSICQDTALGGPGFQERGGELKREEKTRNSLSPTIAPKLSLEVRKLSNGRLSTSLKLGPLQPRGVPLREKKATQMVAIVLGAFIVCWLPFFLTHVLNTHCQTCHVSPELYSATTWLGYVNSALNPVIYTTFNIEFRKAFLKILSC

Prothrombin = Prothrombin (Homo sapiens, UniProt P00734); format: functional
Histamine H3 receptor = Histamine H3 receptor (Homo sapiens, UniProt Q9Y5N1)
Sequence of Histamine H3 receptor (Q9Y5N1 whole entry): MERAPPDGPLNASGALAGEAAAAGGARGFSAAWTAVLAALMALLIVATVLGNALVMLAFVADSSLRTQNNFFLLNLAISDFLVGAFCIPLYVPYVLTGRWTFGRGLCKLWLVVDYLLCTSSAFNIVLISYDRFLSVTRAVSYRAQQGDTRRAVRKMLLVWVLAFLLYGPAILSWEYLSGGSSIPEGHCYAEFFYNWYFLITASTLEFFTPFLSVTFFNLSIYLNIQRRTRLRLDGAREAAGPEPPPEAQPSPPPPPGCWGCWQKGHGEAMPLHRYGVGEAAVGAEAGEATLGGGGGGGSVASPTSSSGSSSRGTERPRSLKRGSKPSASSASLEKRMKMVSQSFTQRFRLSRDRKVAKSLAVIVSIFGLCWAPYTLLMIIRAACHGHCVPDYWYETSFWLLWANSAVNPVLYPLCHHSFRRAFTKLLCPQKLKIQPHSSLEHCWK

[4] = target: 5-hydroxytryptamine receptor 2B (Homo sapiens, UniProt P41595); format: functional, cell-based
Sequence of 5-hydroxytryptamine receptor 2B (P41595 whole entry): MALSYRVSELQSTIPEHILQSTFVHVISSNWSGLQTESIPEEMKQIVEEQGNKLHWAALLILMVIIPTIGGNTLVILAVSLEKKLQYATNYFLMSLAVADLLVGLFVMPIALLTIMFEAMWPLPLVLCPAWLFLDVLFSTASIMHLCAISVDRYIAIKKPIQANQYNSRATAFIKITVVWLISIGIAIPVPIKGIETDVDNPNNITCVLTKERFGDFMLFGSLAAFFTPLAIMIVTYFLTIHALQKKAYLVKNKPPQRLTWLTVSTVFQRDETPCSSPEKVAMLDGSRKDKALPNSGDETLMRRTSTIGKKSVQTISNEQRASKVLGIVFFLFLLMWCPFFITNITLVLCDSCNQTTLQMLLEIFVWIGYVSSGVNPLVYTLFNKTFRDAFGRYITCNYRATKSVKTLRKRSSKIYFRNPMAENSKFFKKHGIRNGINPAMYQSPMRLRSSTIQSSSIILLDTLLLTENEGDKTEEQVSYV

[5] = target: T3, Amine oxidase [flavin-containing] A (Homo sapiens, UniProt P21397); format: functional
T3 sequence (P21397 whole entry): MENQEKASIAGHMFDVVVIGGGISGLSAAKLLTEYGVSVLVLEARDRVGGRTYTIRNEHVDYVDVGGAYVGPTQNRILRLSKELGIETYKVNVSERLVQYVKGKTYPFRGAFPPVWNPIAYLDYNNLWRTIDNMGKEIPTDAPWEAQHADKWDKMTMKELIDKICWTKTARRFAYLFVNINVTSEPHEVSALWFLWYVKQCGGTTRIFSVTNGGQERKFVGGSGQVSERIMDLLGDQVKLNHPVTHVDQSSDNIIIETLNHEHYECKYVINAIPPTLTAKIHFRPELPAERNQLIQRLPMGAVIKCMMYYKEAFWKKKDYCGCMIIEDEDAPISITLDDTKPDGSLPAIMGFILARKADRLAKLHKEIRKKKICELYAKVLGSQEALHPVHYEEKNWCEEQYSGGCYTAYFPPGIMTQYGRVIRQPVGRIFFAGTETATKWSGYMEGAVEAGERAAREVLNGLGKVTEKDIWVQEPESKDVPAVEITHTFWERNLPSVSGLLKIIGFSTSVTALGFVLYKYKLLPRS

[6] = target: 3',5'-cyclic-AMP phosphodiesterase 4A (Homo sapiens, UniProt P27815); format: functional
[7] = target: T4, Prostaglandin G/H synthase 1 (Homo sapiens, UniProt P23219); format: functional
T4 sequence (P23219 whole entry): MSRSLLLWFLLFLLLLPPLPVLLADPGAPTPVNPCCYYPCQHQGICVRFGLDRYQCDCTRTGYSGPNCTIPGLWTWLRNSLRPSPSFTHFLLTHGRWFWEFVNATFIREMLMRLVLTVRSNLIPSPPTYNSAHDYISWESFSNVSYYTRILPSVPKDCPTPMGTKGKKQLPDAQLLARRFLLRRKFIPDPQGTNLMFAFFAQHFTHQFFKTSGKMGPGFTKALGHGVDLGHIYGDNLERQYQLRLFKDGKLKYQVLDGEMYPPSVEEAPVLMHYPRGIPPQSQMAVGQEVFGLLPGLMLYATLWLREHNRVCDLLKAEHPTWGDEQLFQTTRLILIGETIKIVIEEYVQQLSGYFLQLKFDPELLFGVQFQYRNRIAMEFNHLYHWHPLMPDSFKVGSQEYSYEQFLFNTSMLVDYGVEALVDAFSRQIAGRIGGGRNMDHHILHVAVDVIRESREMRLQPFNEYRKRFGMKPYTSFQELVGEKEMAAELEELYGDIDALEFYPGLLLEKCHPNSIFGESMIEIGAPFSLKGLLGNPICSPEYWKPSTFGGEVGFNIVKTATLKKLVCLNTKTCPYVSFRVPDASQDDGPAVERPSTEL

[8] = target: T4, Prostaglandin G/H synthase 1; format: functional; remark: listed apart in the source
[9] = target: Sodium-dependent dopamine transporter (Homo sapiens, UniProt Q01959)
Sequence of Sodium-dependent dopamine transporter (Q01959 whole entry): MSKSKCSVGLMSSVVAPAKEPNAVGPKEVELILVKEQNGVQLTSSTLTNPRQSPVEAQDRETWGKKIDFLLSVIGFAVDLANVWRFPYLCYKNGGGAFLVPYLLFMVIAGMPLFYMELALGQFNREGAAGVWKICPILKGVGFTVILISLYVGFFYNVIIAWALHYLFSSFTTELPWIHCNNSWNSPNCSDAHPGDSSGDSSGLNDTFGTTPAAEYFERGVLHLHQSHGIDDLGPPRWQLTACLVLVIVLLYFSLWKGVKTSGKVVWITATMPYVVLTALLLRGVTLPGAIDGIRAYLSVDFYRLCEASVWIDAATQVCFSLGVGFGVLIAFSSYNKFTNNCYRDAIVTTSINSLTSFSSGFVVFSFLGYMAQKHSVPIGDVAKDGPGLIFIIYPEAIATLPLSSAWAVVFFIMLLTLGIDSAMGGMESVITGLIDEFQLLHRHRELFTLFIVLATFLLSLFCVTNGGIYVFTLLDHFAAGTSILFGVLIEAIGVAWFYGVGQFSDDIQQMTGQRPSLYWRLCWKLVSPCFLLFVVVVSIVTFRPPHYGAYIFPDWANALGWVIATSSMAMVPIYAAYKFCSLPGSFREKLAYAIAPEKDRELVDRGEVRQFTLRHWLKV

Thromboxane A2 receptor [10] = target: T5, Thromboxane A2 receptor (Homo sapiens, UniProt P21731); format: functional, cell-based
T5 sequence (P21731 whole entry): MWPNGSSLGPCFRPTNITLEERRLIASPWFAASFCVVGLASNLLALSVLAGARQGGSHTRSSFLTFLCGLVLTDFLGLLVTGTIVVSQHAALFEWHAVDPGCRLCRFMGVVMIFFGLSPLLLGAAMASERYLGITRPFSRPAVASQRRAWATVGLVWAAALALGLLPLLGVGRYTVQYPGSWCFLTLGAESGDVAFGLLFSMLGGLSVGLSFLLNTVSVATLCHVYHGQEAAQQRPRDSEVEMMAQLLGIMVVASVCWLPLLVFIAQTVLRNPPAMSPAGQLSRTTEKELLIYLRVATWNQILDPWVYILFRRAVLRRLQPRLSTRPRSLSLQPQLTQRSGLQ

Thromboxane A2 receptor [11] = target: T5, Thromboxane A2 receptor; format: functional, cell-based; remark: listed apart in the source
Note: assay procedure not described here.

Sequence of Bile salt export pump (O95342 whole entry): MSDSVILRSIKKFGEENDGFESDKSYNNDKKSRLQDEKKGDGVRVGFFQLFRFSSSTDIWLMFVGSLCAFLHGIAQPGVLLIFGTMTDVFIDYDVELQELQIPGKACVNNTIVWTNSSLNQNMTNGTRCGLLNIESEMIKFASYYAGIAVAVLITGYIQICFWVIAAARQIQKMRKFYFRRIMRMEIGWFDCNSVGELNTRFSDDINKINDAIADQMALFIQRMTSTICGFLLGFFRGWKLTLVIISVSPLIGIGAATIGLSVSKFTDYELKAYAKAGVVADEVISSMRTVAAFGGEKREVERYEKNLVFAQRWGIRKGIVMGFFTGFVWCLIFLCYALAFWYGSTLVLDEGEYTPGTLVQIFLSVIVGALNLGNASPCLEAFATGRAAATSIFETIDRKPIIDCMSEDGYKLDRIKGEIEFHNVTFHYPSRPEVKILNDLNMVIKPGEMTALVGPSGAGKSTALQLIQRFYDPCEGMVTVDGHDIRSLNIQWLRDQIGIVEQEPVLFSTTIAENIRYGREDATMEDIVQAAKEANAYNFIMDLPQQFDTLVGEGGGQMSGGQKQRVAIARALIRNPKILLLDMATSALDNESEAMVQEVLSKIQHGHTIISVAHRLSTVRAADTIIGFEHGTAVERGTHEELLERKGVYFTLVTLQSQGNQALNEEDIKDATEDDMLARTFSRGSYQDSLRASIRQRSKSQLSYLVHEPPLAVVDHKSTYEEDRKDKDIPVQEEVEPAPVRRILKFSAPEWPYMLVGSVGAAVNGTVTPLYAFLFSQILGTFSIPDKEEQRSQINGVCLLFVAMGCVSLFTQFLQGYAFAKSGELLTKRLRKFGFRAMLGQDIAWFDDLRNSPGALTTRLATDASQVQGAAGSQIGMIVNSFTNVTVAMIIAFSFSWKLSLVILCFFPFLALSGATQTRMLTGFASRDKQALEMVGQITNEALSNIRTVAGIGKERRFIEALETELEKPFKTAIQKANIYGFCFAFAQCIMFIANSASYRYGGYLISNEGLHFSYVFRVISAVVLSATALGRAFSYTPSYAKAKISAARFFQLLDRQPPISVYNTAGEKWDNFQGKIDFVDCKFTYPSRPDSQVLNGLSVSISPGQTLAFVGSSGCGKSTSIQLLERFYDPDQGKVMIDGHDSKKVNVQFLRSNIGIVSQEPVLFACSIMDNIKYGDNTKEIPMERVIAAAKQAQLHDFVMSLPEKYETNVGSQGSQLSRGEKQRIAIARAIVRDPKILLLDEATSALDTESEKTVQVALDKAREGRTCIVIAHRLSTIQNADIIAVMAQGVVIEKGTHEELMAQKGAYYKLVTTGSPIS

Structure (SMILES) | AC50 (Bile salt export pump) [µM] | AC50 [1] [µM] | AC50 (Acetylcholinesterase) [µM] | AC50 [2] [µM] | AC50 [3] [µM] | AC50 (D(3) dopamine receptor) [µM] | AC50 (Prothrombin) [µM] | AC50 (Histamine H3 receptor) [µM] | AC50 [4] [µM] | AC50 [5] [µM] | AC50 [6] [µM] | AC50 [7] [µM] | AC50 [8] [µM] | AC50 [9] [µM] | AC50 (Thromboxane A2 receptor [10]) [µM] | AC50 (Thromboxane A2 receptor [11]) [µM]
COc1ccccc1Oc1c(NS(=O)(=O)c2ccc(C(C)(C)C)cc2)nc(-c2ncccn2)nc1OCCO [BOSENTAN] | 18 | > 30 |  |  |  |  |  |  |  |  |  |  |  |  |  | 
CCN(CC)CCNC(=O)c1c(C)[nH]c(/C=C2\C(=O)Nc3ccc(F)cc32)c1C [SUNITINIB] | 34 |  |  |  |  |  |  |  |  |  |  |  |  |  |  | 
CC(CN1CC(=O)NC(=O)C1)N1CC(=O)NC(=O)C1 (stereo not given) [RAZOXANE] |  | > 30 | > 10 | > 30 | > 30 | > 30 | > 30 | > 30 | > 30 | > 30 | > 30 | > 3 | 20.4 | > 30 | > 30 | > 30
CN(C)CCC[C@@]1(c2ccc(F)cc2)OCc2cc(C#N)ccc21 [ESCITALOPRAM] | > 300 |  |  |  |  |  |  |  |  |  |  |  |  |  |  | 
CC(C)OC(=O)CCC/C=C\C[C@@H]1[C@@H](/C=C/C(F)(F)COc2ccccc2)[C@H](O)C[C@@H]1O [TAFLUPROST] |  | > 30 | > 30 | > 30 | > 30 | > 30 | > 30 | > 30 | > 30 | > 30 | > 30 | > 30 | > 30 | > 30 | > 30 | 29.6
CNC(=O)Oc1cccc2ccccc12 [CARBARIL] |  | > 30 | > 30 | > 30 | > 30 | > 30 | > 30 | > 30 | > 30 | > 30 | > 30 | 4.19 | 3.71 | > 30 | > 30 | > 30
COc1ccccc1OCCNCC(O)COc1cccc2[nH]c3ccccc3c12 (stereo not given) [CARVEDILOL] | 79 |  |  |  |  |  |  |  |  |  |  |  |  |  |  | 
C[C@@H](Oc1cc(-c2cnn(C3CCNCC3)c2)cnc1N)c1c(Cl)ccc(F)c1Cl [CRIZOTINIB] | 154 |  |  |  |  |  |  |  |  |  |  |  |  |  |  | 
OC[C@H]1O[C@@](CO)(O[C@H]2O[C@H](CO)[C@@H](O)[C@H](O)[C@H]2O)[C@@H](O)[C@@H]1O [SUCROSE] |  | > 30 | > 30 | > 30 | > 30 | > 30 | > 30 | > 30 | > 30 | > 30 | > 30 | > 30 | > 30 | > 30 | > 30 | > 30
C=C[C@H]1C[N@@]2CC[C@H]1C[C@@H]2[C@@H](O)c1ccnc2ccc(OC)cc12 [QUINIDINE] | 64 |  |  |  |  |  |  |  |  |  |  |  |  |  |  | 
CC(C)N(CCC(C(N)=O)(c1ccccc1)c1ccccn1)C(C)C (stereo not given) [DISOPYRAMIDE] | > 300 |  |  |  |  |  |  |  |  |  |  |  |  |  |  | 
CN(C)CC[C@@H](c1ccc(Cl)cc1)c1ccccn1 [DEXCHLORPHENIRAMINE] | > 300 |  |  |  |  |  |  |  |  |  |  |  |  |  |  | 
CC[C@H]1OC(=O)[C@H](C)C(=O)[C@H](C)[C@@H](O[C@@H]2O[C@H](C)C[C@H](N(C)C)[C@H]2O)[C@](C)(OC)C[C@@H](C)C(=O)[C@H](C)[C@H]2N(CCCCn3cnc(-c4cccnc4)c3)C(=O)O[C@]12C [TELITHROMYCIN] |  | > 30 | > 30 | > 30 | > 30 | > 30 | > 30 | > 30 | > 30 | > 30 | > 30 | 20.6 | > 30 | > 30 | > 30 | > 30
N[C@@H](CC(=O)N1CCn2c(nnc2C(F)(F)F)C1)Cc1cc(F)c(F)cc1F [SITAGLIPTIN] | > 300 |  |  |  |  |  |  |  |  |  |  |  |  |  |  | 
C=CCN1CC[C@]23CCCC[C@H]2[C@H]1Cc1ccc(O)cc13 [LEVALLORPHAN] |  | 14 | 16.7 | > 30 | 8.91 | 23.4 | > 30 | > 30 | > 30 | > 30 | > 30 | 8.54 | > 30 | > 30 | > 30 | > 30
